Experimental data from the CheMixHub viscosity set.
± gives the uncertainty stated by the source.

Test: xn = mol fraction of the nth substance listed

CCCOC(C)=O + COCCOCCOCCOCCOC
viscosity [mPa·s], 101 kPa
Conditions	298.15 K	308.15 K	318.15 K
x1 = 0.01	3.323 ± 0.088	2.605 ± 0.069	2.085 ± 0.055
x2 = 0.0066	0.564 ± 0.015	0.496 ± 0.013	0.445 ± 0.012
x2 = 0.0294	0.602 ± 0.016	0.529 ± 0.014	0.471 ± 0.013
x2 = 0.0477	0.633 ± 0.017	0.554 ± 0.015	0.494 ± 0.013
x2 = 0.0676	0.67 ± 0.018	0.585 ± 0.016	0.519 ± 0.014
x2 = 0.103	0.746 ± 0.02	0.64 ± 0.017	0.562 ± 0.015
x2 = 0.1448	0.825 ± 0.022	0.716 ± 0.019	0.619 ± 0.016
x2 = 0.1941	0.93 ± 0.025	0.794 ± 0.021	0.689 ± 0.018
x2 = 0.2422	1.049 ± 0.028	0.881 ± 0.023	0.757 ± 0.02
x2 = 0.2932	1.161 ± 0.031	0.978 ± 0.026	0.834 ± 0.022
x2 = 0.3625	1.343 ± 0.035	1.12 ± 0.03	0.943 ± 0.025
x2 = 0.4204	1.504 ± 0.04	1.234 ± 0.033	1.038 ± 0.028
x2 = 0.4781	1.663 ± 0.044	1.364 ± 0.036	1.139 ± 0.03
x2 = 0.5293	1.827 ± 0.048	1.472 ± 0.039	1.22 ± 0.032
x2 = 0.5986	2.014 ± 0.053	1.633 ± 0.043	1.345 ± 0.036
x2 = 0.6621	2.209 ± 0.058	1.784 ± 0.047	1.458 ± 0.039
x2 = 0.7157	2.378 ± 0.063	1.924 ± 0.051	1.559 ± 0.041
x2 = 0.7802	2.61 ± 0.069	2.074 ± 0.055	1.679 ± 0.045
x2 = 0.8069	2.687 ± 0.071	2.142 ± 0.057	1.737 ± 0.046
x2 = 0.8324	2.77 ± 0.073	2.203 ± 0.058	1.78 ± 0.047

ClC(Cl)(Cl)Cl + COc1ccccc1
viscosity [mPa·s], 101 kPa
Conditions	x2 = 0.105	x2 = 0.2013	x2 = 0.3026	x2 = 0.3956	x2 = 0.5023	x2 = 0.5968	x2 = 0.699	x2 = 0.797	x2 = 0.8998
298.15 K	0.9408 ± 0.024	0.9425 ± 0.024	0.9493 ± 0.025	0.9547 ± 0.025	0.9644 ± 0.025	0.9745 ± 0.025	0.9834 ± 0.025	0.9896 ± 0.026	0.9961 ± 0.026
303.15 K	0.8895 ± 0.023	0.8842 ± 0.023	0.8852 ± 0.023	0.8927 ± 0.023	0.9013 ± 0.023	0.9054 ± 0.024	0.9147 ± 0.024	0.919 ± 0.024	0.926 ± 0.024
308.15 K	0.8268 ± 0.021	0.8263 ± 0.021	0.8279 ± 0.021	0.8326 ± 0.022	0.8397 ± 0.022	0.8446 ± 0.022	0.8502 ± 0.022	0.8547 ± 0.022	0.858 ± 0.022
313.15 K	0.7762 ± 0.02	0.7751 ± 0.02	0.7851 ± 0.02	0.7777 ± 0.02	0.7837 ± 0.02	0.7864 ± 0.02	0.7919 ± 0.021	0.7946 ± 0.021	0.7981 ± 0.021

CCOC(=O)c1ccccc1O + CS(C)=O
303.15 K, 101 kPa
Conditions	viscosity [mPa·s]
x1 = 0.0499	1.888 ± 0.022
x1 = 0.1687	2.196 ± 0.025
x1 = 0.2404	2.294 ± 0.026
x1 = 0.3226	2.533 ± 0.029
x1 = 0.4179	2.57 ± 0.03
x1 = 0.5265	2.723 ± 0.031
x1 = 0.6564	2.843 ± 0.033

ClC(Cl)(Cl)Cl + CS(C)=O
Conditions	viscosity [mPa·s]
298 K, 101.3 kPa, x1 = 0.1093	2.001 ± 0.025
298 K, 101.3 kPa, x1 = 0.226	1.852 ± 0.023
298 K, 101.3 kPa, x1 = 0.4246	1.654 ± 0.019
298 K, 101.3 kPa, x1 = 0.5746	1.5 ± 0.017
298 K, 101.3 kPa, x1 = 0.6402	1.399 ± 0.015
298 K, 101.3 kPa, x1 = 0.8661	1.067 ± 0.011
303.15 K, 101.33 kPa, x1 = 0.2642	1.553 ± 0.016
303.15 K, 101.33 kPa, x1 = 0.3011	1.526 ± 0.015
303.15 K, 101.33 kPa, x1 = 0.3924	1.483 ± 0.015
303.15 K, 101.33 kPa, x1 = 0.4763	1.391 ± 0.014
303.15 K, 101.33 kPa, x1 = 0.5118	1.358 ± 0.014
303.15 K, 101.33 kPa, x1 = 0.5664	1.304 ± 0.013
318 K, 101.3 kPa, x1 = 0.114	1.312 ± 0.045
318 K, 101.3 kPa, x1 = 0.2398	1.25 ± 0.043
318 K, 101.3 kPa, x1 = 0.424	1.139 ± 0.04
318 K, 101.3 kPa, x1 = 0.5763	1.035 ± 0.036
318 K, 101.3 kPa, x1 = 0.8096	0.8725 ± 0.031
